Experimental data published in patent US5475028A (Zaidan Hojin Seisan Kaihatsu Kagaku Kenkyusho, priority 1992, dated 1995).

Columns and labels:
[1] = test system: Isolated liver cells of rats; assay: Anti-hepatitis test: disorder of the isolated liver cells, antibody against rat liver cell membranes; type: cell-based; conditions: antiserum against rat liver cell membranes, test substance 0.1 mg/ml solution, 1 ml added to 2 ml, supernatant, Table 3, n = 8, * p < 0.05
Procedure: (2) Disorder of the isolated liver cells
b. Antibody against rat liver cell membranes
Isolated liver cells of rats were prepared by means of Segren's collagenase irrigation method, whereby a liver cell suspension was prepared at a concentration of 6×10^8 liver cells/mi. An Erlenmeyer flask of a 10 ml capacity in which 2 ml of the suspension had been placed was saturated with 95% oxygen, and after the flask was tightly stoppered, preincubation was carried out at 37° C. for 5 min. One ml of a test substance solution prepared at a concentration of 0.1 mg/ml Hunk's solution was added to the liver cell suspension, while 1 ml of the Hunk's solution was added to the control, followed by incubation for another 5 min, and antiserum against rat liver cell membranes (a 50-fold diluted serum) was added. A specifically determined volume of the reaction solution was pipetted out 0 and 30 min after the initiation of reaction, respectively, and immediately centrifuged under 500 g for 30 seconds, and the ALT, AST and LDH as leached out into the supernatant liquid were determined for activity by the Lippie method.

[2] = test system: Isolated liver cells of rats; assay: Anti-hepatitis test: disorder of the isolated liver cells, carbon tetrachloride; type: cell-based; conditions: isolated rat liver cells, carbon tetrachloride vapor; test substance 0.1 mg/ml solution, 1 ml added to 2 ml; supernatant; Table 2; n = 8; * p < 0.05
Procedure: (2) Disorder of the isolated liver cells a. Carbon tetrachloride Isolated liver cells of rats were prepared by means of […] collagenase irrigation method, whereby a liver cell suspension was prepared to a concentration of 6×10^8 liver cells/mi. Into 2 ml of the suspension in an Erlenmeyer flask of a 10 ml capacity was put a test tube of about 0.5 capacity containing carbon tetrachloride to saturate the reaction system with carbon tetrachloride vapor, and after the flask was tightly stoppered, preincubation was carried out at 37° C. for 5 min. One ml of a test substance solution prepared at a concentration of 0.1 mg/ml Hunk's solution was added to the suspension of liver cells, while 1 ml of Hunk's solution was added to the control.

[3] = test system: Liver disorder (hepatopathy) in mice; assay: Anti-hepatitis test: liver disorder (hepatopathy) in mice, carbon tetrachloride; type: in vivo, dyy-strain male mice; conditions: carbon tetrachloride i.p., test substance 1.0 mg/ml i.p. 3 h later, blood at 24 h, Table 1, * p < 0.05
Procedure: (1) Liver disorder (hepatopathy) in mice A group of 8 dyy-strain male mice (weighing 23 to 25 g), kept fasting from the previous day was treated by intraperitoneal injection of a 25% solution of carbon tetrachloride in olive oil at a dose of […] and thereafter allowed free access to food. Three hours after the administration of carbon tetrachloride, the mice were given a 1.0 mg/ml concentrated suspension of the test substance, as prepared in conjunction with powdered gum arabic, by intra-peritoneal injection at a dose of 0.1 ml/body weight. Twenty four hours after the administration of carbon tetrachloride, blood samples were drawn from the mice under anesthesia with ether through the abdominal descending aorta.

[4] = test system: Stomach injury through water-immersion constraint stress; assay: Anti-ulcer test: stomach injury through water-immersion constraint stress; type: in vivo, male rats of KBL Wistar strain; conditions: rats; for Suppression rate: 30 min before water-soaking constraint, 7 h, ulcer length, * p < 0.05
Procedure: (2) Stomach injury through water-immersion constraint stress
Rats weighing 183 to 235 g were fasted with free access to water for 24 hours before being used in the experiment. The rats were divided into groups each consisting of 10 heads in such a way as their mean body weights were nearly uniform, stress-loaded by soaking the animals as placed in a stress cage of Univ. of Tokyo type in a water tank at 23° C. up to the xiphoid and sacrificed through cervical vertebrae dislocation 7 hours later. The stomachs were removed and treated with formalin, and individual ulcers formed in the glandula portion of the stomach were measured in length (mm), with the measured ulcer lengths being summed for each rat. The test substance was suspended in a 0.5% aqueous solution of sodium carboxymethylcellulose, and the suspension was given to the test group orally at a dose of 10 ml/kg body weight 30 min before the water-soaking constraint, whereas the vehicle alone was applied to the control group.

mice = assay: Acute toxicity test; type: in vivo, Male, SLC:ICR (SPE) mice; conditions: oral
Procedure: Male, SLC:ICR (SPE) mice weighing 20 g, divided into groups each consisting of 5 heads, were treated by oral administration of the test compound suspended in gum arabic at doses of 1,000 mg/kg, 1,500 mg/kg and 2,500 mg/kg test compound, followed by observation for any abnormalities.

[5] = Overall anti-hepatitis, liver-function improving and anti-ulcer activities (summary of tests)
[6] = test system: Stomach injury with hydrochloric acid/ethanol; assay: Anti-ulcer test: stomach injury with hydrochloric acid/ethanol; type: in vivo, male rats of KBL Wistar strain; conditions: rats; for Suppression rate: 30 min before hydrochloric acid/ethanol, ulcer length
Procedure: (1) Stomach injury with hydrochloric acid/ethanol:
Rats weighing 193 to 228 g were fasted with free access to water for 24 hours before being used in the experiment. The rats were divided into groups each consisting of 10 heads in such a way as their mean body weights were nearly uniform, treated through oral administration of hydrochloric acid/ethanol (0.15 mole hydrochloric acid solution in 80% ethanol) at a dose of 5 ml/kg body weight and sacrificed through cervical vertebrae dislocation 1 hour after administration. The stomachs were removed and treated with formalin, and individual ulcers formed in the glandula portion of the stomach were measured in length (mm), with the measured ulcer lengths being summed for each rat. The test substance was suspended in a 0.5% aqueous solution of sodium carboxymethylcellulose, and the suspension was given to the test group orally at a dose of 10 ml/kg body weight 30 min before administration of hydrochloric acid/ethanol, whereas the vehicle alone was applied to the control group.

Molecule	ALT, mean ± S.D. [1]	AST, mean ± S.D. [1]	LDH, mean ± S.D. [1]	ALT, mean ± S.D. [2]	AST, mean ± S.D. [2]	ALT, mean ± S.D. [3]	AST, mean ± S.D. [3]	LDH, mean ± S.D. [3]	Suppression rate ([4]; 50 mg/kg oral)	Suppression rate ([4]; 100 mg/kg oral)	Suppression rate ([4]; 200 mg/kg oral)	UD50 ([4]; oral, water-immersion constraint stress, 95% C.L. 97.9~113, 420 min)	LD50 (mice)	deaths (mice; doses up to 2,500 mg/kg)	anti-hepatitis, liver-function improving and anti-ulcer activities [5]	suppression against increases in activities of ALT, AST and LDH ([5]; Tables 1 to 3, as compared with the control compounds currently in use)	Suppression rate ([6]; 50 mg/kg oral)	Suppression rate ([6]; 100 mg/kg oral, * p < 0.01)	Suppression rate ([6]; 200 mg/kg oral, * p < 0.01)	UD50 ([6]; oral, hydrochloric acid/ethanol, 95% C.L. 83.4~94.3, 60 min)
N[C@@H](CCC(=O)N[C@@H](CS)C(=O)NCC(=O)O)C(=O)O [Glutathione]	2257.8 ± 581.6 IU	1759.4 ± 394.3 IU	2541.1 ± 563.4 IU	1176.1 ± 123.7 IU	321.7 ± 94.4 IU	19423.1 ± 1042.3 IU	9643.6 ± 3874.3 IU	32392 ± 7906 IU												
CC1(C)[C@@H](O[C@H]2O[C@H](C(=O)O)[C@@H](O)[C@H](O)[C@H]2O[C@@H]2O[C@H](C(=O)O)[C@@H](O)[C@H](O)[C@H]2O)CC[C@]2(C)[C@H]3C(=O)C=C4[C@@H]5C[C@@](C)(C(=O)O)CC[C@]5(C)CC[C@@]4(C)[C@]3(C)CC[C@@H]12 [Glycyrrhizin]	1764.8 ± 437.1 IU	1358.4 ± 324.1 IU	2163.1 ± 562.7 IU	1089.7 ± 210.2 IU	267.8 ± 78.1 IU	8339.3 ± 2420.1 IU	8949.6 ± 4530.0 IU	26457 ± 11086 IU												
CC(S)C(=O)NCC(=O)O (centres unmarked) [Thiopronine]	1826.5 ± 479.5 IU	1623.7 ± 432.8 IU	2583.7 ± 634.1 IU	1426.9 ± 199.5 IU	956.8 ± 219.5 IU	4941.2 ± 1537.7 IU	4884.5 ± 1097.5 IU	26789 ± 9753 IU												
Zinc-[bis(2-aminoethanesulfonic acid).bis(sodium 2-aminoethanesulfonate)] [FTZ]	1429.5 ± 327.8 IU	1025.8 ± 268.4 IU	1875.3 ± 437.1 IU	1107.1 ± 168.8 IU	345.7 ± 72.8 IU	4265.7 ± 1347.6 IU	3215.8 ± 967.7 IU	15865 ± 5300.8 IU	26.4%	56.1%	64.5%	105 mg/kg	> 2,500 mg/kg	did not cause any animal to die	exhibits anti-hepatitis, liver-function improving and anti-ulcer activities	significantly enhanced suppression	32.1%	53.5%	74.9%	88.7 mg/kg
